Measurements from ChEMBL document CHEMBL1914304 (J Med Chem, 2011).

Legend:
BJ = test: Cytotoxicity against human BJ cells after 72 hrs by luminescence assay; format: cell-based
HepG2 = test: Cytotoxicity against human HepG2 cells after 72 hrs by luminescence assay; format: cell-based; details: hepg2, 72 h
HEK293 = test: Cytotoxicity against human HEK293 cells after 72 hrs by luminescence assay; format: cell-based; details: hek293, 72 h
Raji = test: Cytotoxicity against human Raji cells after 72 hrs by luminescence assay; format: cell-based
[1] = Selectivity ratio of EC50 for human HepG2 cells to EC50 for Plasmodium falciparum

For `CCN(CC)CC(O)COc1ccccc1C(=O)CCc1ccccc1.Cl` (racemic), the Activity (BJ) was “Non-toxic”, the Activity (HepG2) was “Non-toxic” and the Activity (HEK293) was “Non-toxic”. The Activity (Raji) was “Non-toxic” and the selectivity ratio [1] was greater than 10.
In the case of `CCCN(CCC)CC(O)COc1ccccc1C(=O)CCc1ccccc1.Cl` (racemic), the Activity (BJ) is reported as “Non-toxic”, the Activity (HepG2) is reported as “Non-toxic” and the Activity (HEK293) is reported as “Non-toxic”. For the same compound, the Activity (Raji) was “Non-toxic” and the selectivity ratio [1] was greater than 10.
For `CCCCN(CCCC)CC(O)COc1ccccc1C(=O)CCc1ccccc1.Cl` (racemic), the Activity (BJ) was “Non-toxic”, the Activity (HepG2) was “Non-toxic” and the Activity (HEK293) was “Non-toxic”. For the same compound, the Activity (Raji) was “Non-toxic” and the selectivity ratio [1] was greater than 10.
For `CC(C)N(CC(O)COc1ccccc1C(=O)CCc1ccccc1)c1ccccc1.Cl` (racemic), the Activity (BJ) was “Non-toxic”, the Activity (HepG2) was “Non-toxic” and the Activity (HEK293) was “Non-toxic”. The Activity (Raji) was “Non-toxic” and the selectivity ratio [1] was greater than 10.
With `Cl.O=C(CCc1ccccc1)c1ccccc1OCC(O)CN(C1CCCCC1)C1CCCCC1` (racemic) the Activity (BJ) was “Non-toxic”, the Activity (HepG2) was “Non-toxic” and the Activity (HEK293) was “Non-toxic”. For the same compound, the Activity (Raji) was “Non-toxic” and the selectivity ratio [1] was greater than 10.
In the case of `Cl.O=C(CCc1ccc(F)cc1)c1ccccc1OCC(O)CNCc1ccccc1` (racemic), the Activity (BJ) is reported as “Non-toxic”, the Activity (HepG2) is reported as “Non-toxic” and the Activity (HEK293) is reported as “Non-toxic”. The Activity (Raji) was “Non-toxic” and the selectivity ratio [1] was greater than 10.
With `Cl.O=C(CCc1ccc(F)cc1)c1ccccc1OCC(O)CN(Cc1ccccc1)c1ccccc1` (racemic) the Activity (BJ) was “Non-toxic”, the Activity (HepG2) was “Non-toxic” and the Activity (HEK293) was “Non-toxic”. For the same compound, the Activity (Raji) was “Non-toxic” and the selectivity ratio [1] was greater than 10.
In the case of `COc1cccc(N(CC(O)COc2ccccc2C(=O)CCc2ccc(F)cc2)c2ccccc2)c1.Cl` (racemic), the Activity (BJ) is reported as “Non-toxic”, the Activity (HepG2) is reported as “Non-toxic” and the Activity (HEK293) is reported as “Non-toxic”. The Activity (Raji) was “Non-toxic” and the selectivity ratio [1] was greater than 10.
In the case of `CN(CCc1ccccc1)CC(O)COc1ccccc1C(=O)CCc1ccc(F)cc1.Cl` (racemic), the Activity (BJ) is reported as “Non-toxic”, the Activity (HepG2) is reported as “Non-toxic” and the Activity (HEK293) is reported as “Non-toxic”. The Activity (Raji) was “Non-toxic” and the selectivity ratio [1] was greater than 10.
For `CCN(CC)CC(O)COc1ccccc1C(=O)CCc1ccc(F)cc1.Cl` (racemic), the Activity (BJ) was “Non-toxic”, the Activity (HepG2) was “Non-toxic” and the Activity (HEK293) was “Non-toxic”. For the same compound, the Activity (Raji) was “Non-toxic” and the selectivity ratio [1] was greater than 10.
With `CCCN(CCC)CC(O)COc1ccccc1C(=O)CCc1ccc(F)cc1.Cl` (racemic) the Activity (BJ) was “Non-toxic”, the Activity (HepG2) was “Non-toxic” and the Activity (HEK293) was “Non-toxic”. For the same compound, the Activity (Raji) was “Non-toxic” and the selectivity ratio [1] was greater than 10.
With `CCCCN(CCCC)CC(O)COc1ccccc1C(=O)CCc1ccc(F)cc1.Cl` (racemic) the Activity (BJ) was “Non-toxic”, the Activity (HepG2) was “Non-toxic” and the Activity (HEK293) was “Non-toxic”. The Activity (Raji) was “Non-toxic” and the selectivity ratio [1] was greater than 10.
With `CC(C)N(CC(O)COc1ccccc1C(=O)CCc1ccc(F)cc1)c1ccccc1.Cl` (racemic) the Activity (BJ) was “Non-toxic”, the Activity (HepG2) was “Non-toxic” and the Activity (HEK293) was “Non-toxic”. For the same compound, the Activity (Raji) was “Non-toxic” and the selectivity ratio [1] was greater than 10.
For `Cl.O=C(CCc1ccc(F)cc1)c1ccccc1OCC(O)CN(C1CCCCC1)C1CCCCC1` (racemic), the Activity (BJ) was “Non-toxic”, the Activity (HepG2) was “Non-toxic” and the Activity (HEK293) was “Non-toxic”. The Activity (Raji) was “Non-toxic” and the selectivity ratio [1] was greater than 10.
With `Cl.O=C(CCc1ccccc1)c1cc(F)ccc1OCC(O)CNCc1ccccc1` (racemic) the Activity (BJ) was “Non-toxic”, the Activity (HepG2) was “Non-toxic” and the Activity (HEK293) was “Non-toxic”. The Activity (Raji) was “Non-toxic” and the selectivity ratio [1] was greater than 10.
In the case of `Cl.O=C(CCc1ccccc1)c1cc(F)ccc1OCC(O)CN(Cc1ccccc1)c1ccccc1` (racemic), the Activity (BJ) is reported as “Non-toxic”, the Activity (HepG2) is reported as “Non-toxic” and the Activity (HEK293) is reported as “Non-toxic”. For the same compound, the Activity (Raji) was “Non-toxic” and the selectivity ratio [1] was greater than 10.
With `Cc1cccc(N(CC(O)COc2ccc(F)cc2C(=O)CCc2ccccc2)c2ccccc2)c1.Cl` (racemic) the Activity (BJ) was “Non-toxic”, the Activity (HepG2) was “Non-toxic” and the Activity (HEK293) was “Non-toxic”. The Activity (Raji) was “Non-toxic” and the selectivity ratio [1] was greater than 10.
For `COc1cccc(N(CC(O)COc2ccc(F)cc2C(=O)CCc2ccccc2)c2ccccc2)c1.Cl` (racemic), the Activity (BJ) was “Non-toxic”, the Activity (HepG2) was “Non-toxic” and the Activity (HEK293) was “Non-toxic”. For the same compound, the Activity (Raji) was “Non-toxic” and the selectivity ratio [1] was greater than 10.
For `CN(CCc1ccccc1)CC(O)COc1ccc(F)cc1C(=O)CCc1ccccc1.Cl` (racemic), the Activity (BJ) was “Non-toxic”, the Activity (HepG2) was “Non-toxic” and the Activity (HEK293) was “Non-toxic”. For the same compound, the Activity (Raji) was “Non-toxic” and the selectivity ratio [1] was greater than 10.
For `CCN(CC)CC(O)COc1ccc(F)cc1C(=O)CCc1ccccc1.Cl` (racemic), the Activity (BJ) was “Non-toxic”, the Activity (HepG2) was “Non-toxic” and the Activity (HEK293) was “Non-toxic”. The Activity (Raji) was “Non-toxic” and the selectivity ratio [1] was greater than 10.
For `CCCN(CCC)CC(O)COc1ccc(F)cc1C(=O)CCc1ccccc1.Cl` (racemic), the Activity (BJ) was “Non-toxic”, the Activity (HepG2) was “Non-toxic” and the Activity (HEK293) was “Non-toxic”. For the same compound, the Activity (Raji) was “Non-toxic” and the selectivity ratio [1] was greater than 10.
For `CCCCN(CCCC)CC(O)COc1ccc(F)cc1C(=O)CCc1ccccc1.Cl` (racemic), the Activity (BJ) was “Non-toxic”, the Activity (HepG2) was “Non-toxic” and the Activity (HEK293) was “Non-toxic”. For the same compound, the Activity (Raji) was “Non-toxic” and the selectivity ratio [1] was greater than 10.
With `Cl.O=C(CCc1ccccc1)c1cc(F)ccc1OCC(O)CN(C1CCCCC1)C1CCCCC1` (racemic) the Activity (BJ) was “Non-toxic”, the Activity (HepG2) was “Non-toxic” and the Activity (HEK293) was “Non-toxic”. The Activity (Raji) was “Non-toxic” and the selectivity ratio [1] was greater than 10.
With `Cl.O=C(CCc1ccc(F)cc1)c1cc(F)ccc1OCC(O)CNCc1ccccc1` (racemic) the Activity (BJ) was “Non-toxic”, the Activity (HepG2) was “Non-toxic” and the Activity (HEK293) was “Non-toxic”. The Activity (Raji) was “Non-toxic” and the selectivity ratio [1] was greater than 10.
For `Cl.O=C(CCc1ccc(F)cc1)c1cc(F)ccc1OCC(O)CN(Cc1ccccc1)c1ccccc1` (racemic), the Activity (BJ) was “Non-toxic”, the Activity (HepG2) was “Non-toxic” and the Activity (HEK293) was “Non-toxic”. For the same compound, the Activity (Raji) was “Non-toxic” and the selectivity ratio [1] was greater than 10.
For `Cc1cccc(N(CC(O)COc2ccc(F)cc2C(=O)CCc2ccc(F)cc2)c2ccccc2)c1.Cl` (racemic), the Activity (BJ) was “Non-toxic”, the Activity (HepG2) was “Non-toxic” and the Activity (HEK293) was “Non-toxic”. For the same compound, the Activity (Raji) was “Non-toxic” and the selectivity ratio [1] was greater than 10.
With `COc1cccc(N(CC(O)COc2ccc(F)cc2C(=O)CCc2ccc(F)cc2)c2ccccc2)c1.Cl` (racemic) the Activity (BJ) was “Non-toxic”, the Activity (HepG2) was “Non-toxic” and the Activity (HEK293) was “Non-toxic”. The Activity (Raji) was “Non-toxic” and the selectivity ratio [1] was greater than 10.
With `CN(CCc1ccccc1)CC(O)COc1ccc(F)cc1C(=O)CCc1ccc(F)cc1.Cl` (racemic) the Activity (BJ) was “Non-toxic”, the Activity (HepG2) was “Non-toxic” and the Activity (HEK293) was “Non-toxic”. For the same compound, the Activity (Raji) was “Non-toxic” and the selectivity ratio [1] was greater than 10.
For `CCN(CC)CC(O)COc1ccc(F)cc1C(=O)CCc1ccc(F)cc1.Cl` (racemic), the Activity (BJ) was “Non-toxic”, the Activity (HepG2) was “Non-toxic” and the Activity (HEK293) was “Non-toxic”. The Activity (Raji) was “Non-toxic” and the selectivity ratio [1] was greater than 10.
With `CCCN(CCC)CC(O)COc1ccc(F)cc1C(=O)CCc1ccc(F)cc1.Cl` (racemic) the Activity (BJ) was “Non-toxic”, the Activity (HepG2) was “Non-toxic” and the Activity (HEK293) was “Non-toxic”. For the same compound, the Activity (Raji) was “Non-toxic” and the selectivity ratio [1] was greater than 10.
In the case of `CCCCN(CCCC)CC(O)COc1ccc(F)cc1C(=O)CCc1ccc(F)cc1.Cl` (racemic), the Activity (BJ) is reported as “Non-toxic”, the Activity (HepG2) is reported as “Non-toxic” and the Activity (HEK293) is reported as “Non-toxic”. The Activity (Raji) was “Non-toxic” and the selectivity ratio [1] was greater than 10.
In the case of `CC(C)N(CC(O)COc1ccc(F)cc1C(=O)CCc1ccc(F)cc1)c1ccccc1.Cl` (racemic), the Activity (BJ) is reported as “Non-toxic”, the Activity (HepG2) is reported as “Non-toxic” and the Activity (HEK293) is reported as “Non-toxic”. For the same compound, the Activity (Raji) was “Non-toxic” and the selectivity ratio [1] was greater than 10.
In the case of `Cl.O=C(CCc1ccc(F)cc1)c1cc(F)ccc1OCC(O)CN(C1CCCCC1)C1CCCCC1` (racemic), the Activity (BJ) is reported as “Non-toxic”, the Activity (HepG2) is reported as “Non-toxic” and the Activity (HEK293) is reported as “Non-toxic”. The Activity (Raji) was “Non-toxic” and the selectivity ratio [1] was greater than 10.
With `Cl.O=C(CCc1ccccc1)c1ccccc1OCC(O)CN1CCCCC1` (racemic) the Activity (BJ) was “Non-toxic”, the Activity (HepG2) was “Non-toxic” and the Activity (HEK293) was “Non-toxic”. For the same compound, the Activity (Raji) was “Non-toxic” and the selectivity ratio [1] was greater than 10.
With `Cl.O=C(CCc1ccccc1)c1ccccc1OCC(O)CN1CCC(Cc2ccccc2)CC1` (racemic) the Activity (BJ) was “Non-toxic”, the Activity (HepG2) was “Non-toxic” and the Activity (HEK293) was “Non-toxic”. For the same compound, the Activity (Raji) was “Non-toxic” and the selectivity ratio [1] was greater than 10.
For `Cl.O=C(CCc1ccccc1)c1ccccc1OCC(O)CN1CCC(c2ccc(Cl)cc2)CC1` (racemic), the Activity (BJ) was “Non-toxic”, the Activity (HepG2) was “Non-toxic” and the Activity (HEK293) was “Non-toxic”. The Activity (Raji) was “Non-toxic” and the selectivity ratio [1] was greater than 10.
For `Cl.O=C(CCc1ccccc1)c1ccccc1OCC(O)CN1CCC(O)(Cc2ccccc2)CC1` (racemic), the Activity (BJ) was “Non-toxic”, the Activity (HepG2) was “Non-toxic” and the Activity (HEK293) was “Non-toxic”. The Activity (Raji) was “Non-toxic” and the selectivity ratio [1] was greater than 10.
In the case of `Cl.O=C(CCc1ccccc1)c1ccccc1OCC(O)CN1CCC(O)(c2ccc(Cl)cc2)CC1` (racemic), the Activity (BJ) is reported as “Non-toxic”, the Activity (HepG2) is reported as “Non-toxic” and the Activity (HEK293) is reported as “Non-toxic”. For the same compound, the Activity (Raji) was “Non-toxic” and the selectivity ratio [1] was greater than 10.
In the case of `Cl.O=C(CCc1ccccc1)c1ccccc1OCC(O)CN1CCN(c2ccccc2)CC1` (racemic), the Activity (BJ) is reported as “Non-toxic”, the Activity (HepG2) is reported as “Non-toxic” and the Activity (HEK293) is reported as “Non-toxic”. The Activity (Raji) was “Non-toxic” and the selectivity ratio [1] was greater than 10.
